Measured values as given in patent US20230255195A1, “CRYOPRESERVATION METHOD FOR ORGAN-ON-A-CHIP” (MEPSGEN CO., LTD., priority 2020, published 2023).

System: three-dimensional organ-on-a-chip (hBMEC, pericytes, astrocytes in hydrogel)
Assay: TEER (transepithelial electrical resistance) of organ-on-a-chip after cryopreservation and thawing
Format: cell-based, human
Settings: for TEER value after freezing compared with TEER value before freezing (normalized): FIG. 10; for TEER value after freezing compared with TEER value before freezing (normalized, before freezing set to 1): substance used as cryoprotectant in the cryopreservation method of Example 2, FIG. 9
Description: 10 μl of fibronectin was injected into each of the first channel and the second channel of the organ-on-a-chip of the present invention, and cultured in an incubator for 1 hour. Cell adhesion promoters of the first channel and the second channel were removed, and 10^7 cells/ml of a pericyte solution was injected into the second channel. After culturing for 3 hours in an incubator with the chip inverted, the culture solution in the second channel was removed. After injecting 10^7 cells/ml of a mixture in which astrocytes and hydrogel were mixed in a 1:9 volume ratio into the second channel, they were cultured in an incubator for 30 minutes. The culture solution was injected into the side channel and the first channel, and the well reservoir was filled with the culture solution and cultured for one day, and then 10^7 cells/ml of human brain microvascular endothelial cell (hBMEC) solution was injected into the first channel. After culturing for 1 hour in an incubator, the culture solution in the first channel was replaced and cultured for one day. The culture solution in the first channel and the side channel was replaced, and the side channel was plugged in, and then one side of the inlets of the first channel was connected to a syringe pump, and the other side was connected to a culture solution tank, and perfusion culture was performed at 4 dynes/cm^2 for 24 hours.
All of the culture solution in the well reservoir was removed from the organ-on-a-chip of Example 1 above, and the first channel and the side channel were washed with the culture solution. The side channel was washed twice with the cryopreservation solution (50% culture solution, 40% FBS, 10% DMSO) at 4 to 10° C. The culture solution in both inlets of the first channel was removed, and 30 μl of the cryopreservation solution was put into the inlet, and the cryopreservation solution was flowed by a difference in hydrostatic pressure (1 minute required). The preservation solution in the opposite inlet was removed, and 30 μl of the cryopreservation solution was additionally put into the inlet, and the cryopreservation solution was flowed by a difference in hydrostatic pressure (1 minute required). The chip was placed in a freezing container filled with isopropanol, and stored refrigerated for 15 minutes at 4° C., and then stored in a deep freezer (−80° C.).
The organ-on-a-chip of Example 2 above was taken out of the deep freezer and thawed for 10 minutes by immersing it in a constant temperature water bath (37° C.) so that the bottom was in contact, and then the culture solution in the side channel was replaced twice with a culture solution at 37° C. The preservation solution in both inlets of the first channel was removed, and 30 μl of the culture solution at 37° C. was put into the inlet, and the culture solution was flowed by a difference in hydrostatic pressure (1 minute required). The culture solution in the opposite inlet was removed, and 30 μl of the culture solution at 37° C. was additionally put into the inlet, and the culture solution was flowed by a difference in hydrostatic pressure (1 minute required). The well reservoir was filled with the culture solution at 37° C. and cultured for 24 hours or more.
The TEER value corresponds to a representative index for evaluating the cell-to-cell bonding force and the material permeability rate of the tissue and the like in the tissue function of the three-dimensional organ-on-a-chip.
The TEER value (ohm/cm^2) was calculated as follows, and the TEER value before freezing was set to 1 and compared and evaluated with the TEER value after freezing (normalized).

| Structure (SMILES) | TEER value after freezing compared with TEER value before freezing (normalized) (DMSO content 3% in preservation solution) | TEER value after freezing compared with TEER value before freezing (normalized) (DMSO content 5% in preservation solution) | TEER value after freezing compared with TEER value before freezing (normalized) (DMSO content 10% in preservation solution) | TEER value after freezing compared with TEER value before freezing (normalized, before freezing set to 1) |
| --- | --- | --- | --- | --- |
| C[S+](C)[O-] [DMSO, dimethyl sulfoxide] | remained the same | increased | increased | increased |
| OCCO [EG, ethylene glycol] | – | – | – | lower than the TEER value before freezing |
| OCC(O)CO [glycerol] | – | – | – | remained the same |
